How the values were obtained:
Assay in all cases: KINOMEscan competition binding
Details in all cases: compound 10.0 µM
CAMK2B (human) = CAMK2B (human) (UniProt Q13554)
CAMKK1 (human) = CAMKK1 (human) (UniProt Q8N5S9)
CDC42BPB (human) = CDC42BPB (human) (UniProt Q9Y5S2)
CDK5 (human) = CDK5 (human) (UniProt Q00535)
CSNK1A1 (human) = CSNK1A1 (human) (UniProt P48729)
DDR2 (human) = DDR2 (human) (UniProt Q16832)
[1] = system: EIF2AK4 KD2 (human), Q9P2K8 [S808G]
EPHA2 (human) = EPHA2 (human) (UniProt P29317)
EPHA7 (human) = EPHA7 (human) (UniProt Q15375)
EPHB1 (human) = EPHB1 (human) (UniProt P54762)
EPHB2 (human) = EPHB2 (human) (UniProt P29323)
FER (human) = FER (human) (UniProt P16591)
[2] = system: FGFR3 (human), P22607 [G697C]
[3] = system: FLT3 (human), P36888 [D835H]
GRK4 (human) = GRK4 (human) (UniProt P32298)
HIPK4 (human) = HIPK4 (human) (UniProt Q8NE63)
IKBKB (human) = IKBKB (human) (UniProt O14920)
IKBKB (human), sequence (O14920 whole entry, looked up): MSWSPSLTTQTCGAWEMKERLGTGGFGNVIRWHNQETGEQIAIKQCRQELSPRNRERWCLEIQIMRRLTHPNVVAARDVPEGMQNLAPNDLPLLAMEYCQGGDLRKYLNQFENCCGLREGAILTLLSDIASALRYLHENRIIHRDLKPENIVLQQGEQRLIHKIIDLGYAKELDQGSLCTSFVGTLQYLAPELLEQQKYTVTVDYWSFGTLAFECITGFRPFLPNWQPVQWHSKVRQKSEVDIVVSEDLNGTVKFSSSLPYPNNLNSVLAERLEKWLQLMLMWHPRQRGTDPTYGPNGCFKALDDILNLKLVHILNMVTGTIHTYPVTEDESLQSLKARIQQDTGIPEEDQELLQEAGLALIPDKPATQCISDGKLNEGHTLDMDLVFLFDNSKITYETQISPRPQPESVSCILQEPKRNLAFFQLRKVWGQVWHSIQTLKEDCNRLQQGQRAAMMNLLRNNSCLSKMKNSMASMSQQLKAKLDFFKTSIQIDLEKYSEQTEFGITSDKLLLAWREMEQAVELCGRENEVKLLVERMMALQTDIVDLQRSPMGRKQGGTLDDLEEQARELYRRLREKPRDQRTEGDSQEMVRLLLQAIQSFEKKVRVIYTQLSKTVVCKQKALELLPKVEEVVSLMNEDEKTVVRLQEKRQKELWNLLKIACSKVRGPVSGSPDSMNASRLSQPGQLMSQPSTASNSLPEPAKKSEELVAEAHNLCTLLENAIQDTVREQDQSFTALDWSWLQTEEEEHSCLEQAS

[4] = system: KIT (human), P10721 [D816H]
[5] = system: KIT (human), P10721 [D816V]
LCK (human) = LCK (human) (UniProt P06239)
MAP3K2 (human) = MAP3K2 (human) (UniProt Q9Y2U5)
MAP3K6 (human) = MAP3K6 (human) (UniProt O95382)
MAP4K3 (human) = MAP4K3 (human) (UniProt Q8IVH8)
MAPK1 (human) = MAPK1 (human) (UniProt P28482)
MAPK1 (human), sequence (P28482 whole entry, looked up): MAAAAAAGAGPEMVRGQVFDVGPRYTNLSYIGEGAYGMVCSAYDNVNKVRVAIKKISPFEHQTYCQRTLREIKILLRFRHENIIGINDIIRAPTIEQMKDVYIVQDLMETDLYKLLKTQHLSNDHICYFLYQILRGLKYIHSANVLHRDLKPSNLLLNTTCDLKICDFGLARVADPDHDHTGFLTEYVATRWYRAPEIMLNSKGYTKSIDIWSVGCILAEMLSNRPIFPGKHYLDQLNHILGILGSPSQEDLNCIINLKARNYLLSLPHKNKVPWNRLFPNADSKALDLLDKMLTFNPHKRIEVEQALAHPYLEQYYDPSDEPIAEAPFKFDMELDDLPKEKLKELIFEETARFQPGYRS

MAPK13 (human) = MAPK13 (human) (UniProt O15264)
MINK1 (human) = MINK1 (human) (UniProt Q8N4C8)
MKNK2 (human) = MKNK2 (human) (UniProt Q9HBH9)
MKNK2 (human), sequence (Q9HBH9 whole entry, looked up): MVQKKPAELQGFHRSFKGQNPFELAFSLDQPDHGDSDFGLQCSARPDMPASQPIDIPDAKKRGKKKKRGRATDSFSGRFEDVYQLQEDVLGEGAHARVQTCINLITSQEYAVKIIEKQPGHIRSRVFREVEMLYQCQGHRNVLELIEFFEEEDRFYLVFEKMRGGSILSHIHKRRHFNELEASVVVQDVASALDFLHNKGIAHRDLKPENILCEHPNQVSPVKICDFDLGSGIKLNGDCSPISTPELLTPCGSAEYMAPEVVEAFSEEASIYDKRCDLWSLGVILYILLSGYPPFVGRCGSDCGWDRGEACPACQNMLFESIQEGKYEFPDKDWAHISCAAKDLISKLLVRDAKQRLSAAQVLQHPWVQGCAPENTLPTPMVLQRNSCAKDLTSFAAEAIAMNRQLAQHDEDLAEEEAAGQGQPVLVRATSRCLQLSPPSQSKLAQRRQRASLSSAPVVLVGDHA

NEK5 (human) = NEK5 (human) (UniProt Q6P3R8)
PIK3CB (human) = PIK3CB (human) (UniProt P42338)
PIM1 (human) = PIM1 (human) (UniProt P11309)
PIM1 (human), sequence (P11309 whole entry, looked up): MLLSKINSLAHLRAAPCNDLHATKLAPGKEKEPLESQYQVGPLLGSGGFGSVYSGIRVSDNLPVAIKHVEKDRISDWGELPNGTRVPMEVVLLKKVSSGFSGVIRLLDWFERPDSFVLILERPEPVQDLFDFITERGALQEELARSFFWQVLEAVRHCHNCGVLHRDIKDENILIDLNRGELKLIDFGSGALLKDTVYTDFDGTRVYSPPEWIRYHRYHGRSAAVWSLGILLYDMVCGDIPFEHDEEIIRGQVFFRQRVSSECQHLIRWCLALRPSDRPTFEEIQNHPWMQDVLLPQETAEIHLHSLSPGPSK

[6] = system: RET (human), P07949 [M918T]
RPS6KA2 KD1 (human) = RPS6KA2 KD1 (human) (UniProt Q15349)
SIK3 (human) = SIK3 (human) (UniProt Q9Y2K2)
STK16 (human) = STK16 (human) (UniProt O75716)
STK17A (human) = STK17A (human) (UniProt Q9UEE5)
TNK2 (human) = TNK2 (human) (UniProt Q07912)
TTK (human) = TTK (human) (UniProt P33981)
ULK2 (human) = ULK2 (human) (UniProt Q8IYT8)
ULK2 (human), sequence (Q8IYT8 whole entry, looked up): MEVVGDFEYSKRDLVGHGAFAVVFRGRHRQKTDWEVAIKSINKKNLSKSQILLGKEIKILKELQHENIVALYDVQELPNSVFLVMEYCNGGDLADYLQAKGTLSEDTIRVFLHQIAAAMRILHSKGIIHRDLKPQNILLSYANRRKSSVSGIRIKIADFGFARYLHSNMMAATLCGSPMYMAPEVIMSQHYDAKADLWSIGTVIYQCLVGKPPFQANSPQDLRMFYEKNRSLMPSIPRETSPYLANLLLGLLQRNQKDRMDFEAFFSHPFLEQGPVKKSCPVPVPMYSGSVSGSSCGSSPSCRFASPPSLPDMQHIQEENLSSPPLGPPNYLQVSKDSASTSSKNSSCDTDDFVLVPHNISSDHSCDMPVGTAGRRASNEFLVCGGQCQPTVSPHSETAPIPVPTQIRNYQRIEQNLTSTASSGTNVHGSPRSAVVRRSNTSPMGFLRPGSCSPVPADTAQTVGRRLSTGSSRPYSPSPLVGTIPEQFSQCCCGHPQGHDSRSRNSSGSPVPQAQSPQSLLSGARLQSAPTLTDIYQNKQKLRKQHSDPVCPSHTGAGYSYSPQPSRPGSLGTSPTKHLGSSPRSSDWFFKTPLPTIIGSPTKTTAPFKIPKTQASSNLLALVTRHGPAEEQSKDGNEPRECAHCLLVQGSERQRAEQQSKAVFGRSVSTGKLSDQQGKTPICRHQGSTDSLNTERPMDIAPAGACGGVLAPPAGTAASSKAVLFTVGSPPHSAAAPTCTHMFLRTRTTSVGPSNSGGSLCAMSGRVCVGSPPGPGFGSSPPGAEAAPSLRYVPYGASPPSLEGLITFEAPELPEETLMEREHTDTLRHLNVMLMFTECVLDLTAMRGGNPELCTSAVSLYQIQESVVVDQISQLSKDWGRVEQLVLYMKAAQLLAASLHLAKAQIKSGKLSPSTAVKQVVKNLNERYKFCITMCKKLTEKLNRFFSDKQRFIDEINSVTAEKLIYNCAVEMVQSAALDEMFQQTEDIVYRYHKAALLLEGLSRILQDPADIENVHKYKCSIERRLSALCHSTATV

[7] = system: PIK3CA (human), P42336 [I800L]
[8] = system: PIK3CA (human), P42336 [M1043I]
[9] = system: PIK3CA (human), P42336 [Q546K]

EIF2AK4 KD2 (human), Q9P2K8 [S808G], sequence (Q9P2K8 whole entry S808G, looked up): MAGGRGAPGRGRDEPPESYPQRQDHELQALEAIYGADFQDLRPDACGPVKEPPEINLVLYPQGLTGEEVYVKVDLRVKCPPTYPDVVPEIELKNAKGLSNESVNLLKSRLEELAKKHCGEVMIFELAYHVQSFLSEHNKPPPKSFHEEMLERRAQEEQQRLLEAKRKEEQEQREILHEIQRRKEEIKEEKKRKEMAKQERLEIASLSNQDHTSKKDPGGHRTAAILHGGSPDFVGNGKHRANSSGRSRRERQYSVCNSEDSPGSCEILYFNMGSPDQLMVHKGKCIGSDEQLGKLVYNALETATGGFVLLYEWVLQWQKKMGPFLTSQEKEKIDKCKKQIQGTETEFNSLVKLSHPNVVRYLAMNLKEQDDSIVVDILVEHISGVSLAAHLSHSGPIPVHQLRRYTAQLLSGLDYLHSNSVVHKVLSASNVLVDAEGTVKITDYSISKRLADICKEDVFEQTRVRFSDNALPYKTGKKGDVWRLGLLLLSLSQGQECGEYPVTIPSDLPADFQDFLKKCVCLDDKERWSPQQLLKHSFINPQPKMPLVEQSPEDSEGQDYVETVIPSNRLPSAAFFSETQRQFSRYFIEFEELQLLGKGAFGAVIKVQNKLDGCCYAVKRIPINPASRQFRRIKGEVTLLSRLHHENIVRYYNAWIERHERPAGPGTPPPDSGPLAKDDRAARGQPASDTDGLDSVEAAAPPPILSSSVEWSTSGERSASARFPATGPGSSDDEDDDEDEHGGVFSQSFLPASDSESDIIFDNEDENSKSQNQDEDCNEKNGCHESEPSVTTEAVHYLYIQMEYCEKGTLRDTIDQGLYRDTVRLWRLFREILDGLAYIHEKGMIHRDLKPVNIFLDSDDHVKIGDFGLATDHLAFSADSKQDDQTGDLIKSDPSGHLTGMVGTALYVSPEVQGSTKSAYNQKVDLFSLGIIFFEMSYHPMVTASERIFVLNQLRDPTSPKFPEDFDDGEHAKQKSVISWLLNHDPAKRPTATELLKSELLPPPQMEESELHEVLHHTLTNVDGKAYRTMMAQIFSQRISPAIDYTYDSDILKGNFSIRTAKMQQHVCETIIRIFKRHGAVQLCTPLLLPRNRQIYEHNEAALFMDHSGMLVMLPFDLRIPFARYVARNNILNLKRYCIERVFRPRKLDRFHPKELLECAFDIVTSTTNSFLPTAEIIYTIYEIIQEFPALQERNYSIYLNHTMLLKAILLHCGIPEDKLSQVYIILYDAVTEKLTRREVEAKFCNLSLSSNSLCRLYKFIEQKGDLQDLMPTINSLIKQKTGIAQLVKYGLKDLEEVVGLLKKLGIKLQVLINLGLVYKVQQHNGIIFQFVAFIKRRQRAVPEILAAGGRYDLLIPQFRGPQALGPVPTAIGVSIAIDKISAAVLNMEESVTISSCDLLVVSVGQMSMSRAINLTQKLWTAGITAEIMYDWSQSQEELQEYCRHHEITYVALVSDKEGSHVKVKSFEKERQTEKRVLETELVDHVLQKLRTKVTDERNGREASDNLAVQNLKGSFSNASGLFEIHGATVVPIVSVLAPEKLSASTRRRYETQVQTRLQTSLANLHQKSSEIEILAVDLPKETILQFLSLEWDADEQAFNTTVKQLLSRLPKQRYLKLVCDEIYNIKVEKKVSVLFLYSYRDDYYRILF
CDK5 (human), sequence (Q00535 whole entry, looked up): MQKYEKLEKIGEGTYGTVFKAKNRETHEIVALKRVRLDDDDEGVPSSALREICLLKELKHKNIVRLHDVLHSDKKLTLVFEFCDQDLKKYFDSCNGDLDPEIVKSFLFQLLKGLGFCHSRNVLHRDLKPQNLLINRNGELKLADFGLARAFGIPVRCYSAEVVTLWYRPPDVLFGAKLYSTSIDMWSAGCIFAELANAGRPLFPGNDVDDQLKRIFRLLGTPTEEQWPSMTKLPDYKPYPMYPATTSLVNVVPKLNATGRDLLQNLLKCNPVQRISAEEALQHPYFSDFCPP

CC(C)n1nc(-c2cc3cc(O)ccc3[nH]2)c2c(N)ncnc21
kinase still bound, per cent of control (CAMK2B (human)): 63%
kinase still bound, per cent of control (CAMKK1 (human)): 49%
kinase still bound, per cent of control (CDC42BPB (human)): 71%
per cent of control (CDK5 (human)): 100%
kinase still bound, per cent of control (CSNK1A1 (human)): 3.6%
kinase still bound, per cent of control (DDR2 (human)): 11%
kinase still bound, per cent of control [1]: 81%
kinase still bound, per cent of control (EPHA2 (human)): 9.4%
kinase still bound, per cent of control (EPHA7 (human)): 61%
kinase still bound, per cent of control (EPHB1 (human)): 49%
kinase still bound, per cent of control (EPHB2 (human)): 32%
kinase still bound, per cent of control (FER (human)): 64%
kinase still bound, per cent of control [2]: 11%
kinase still bound, per cent of control [3]: 7.4%
kinase still bound, per cent of control (GRK4 (human)): 83%
kinase still bound, per cent of control (HIPK4 (human)): 27%
kinase still bound, per cent of control (IKBKB (human)): 84%
kinase still bound, per cent of control [4]: 16%
kinase still bound, per cent of control [5]: 2.5%
kinase still bound, per cent of control (LCK (human)): 0.95%
kinase still bound, per cent of control (MAP3K2 (human)): 4.8%
kinase still bound, per cent of control (MAP3K6 (human)): 85%
kinase still bound, per cent of control (MAP4K3 (human)): 52%
kinase still bound, per cent of control (MAPK1 (human)): 100%
kinase still bound, per cent of control (MAPK13 (human)): 97%
kinase still bound, per cent of control (MINK1 (human)): 7.7%
kinase still bound, per cent of control (MKNK2 (human)): 4.5%
kinase still bound, per cent of control (NEK5 (human)): 86%
kinase still bound, per cent of control (PIK3CB (human)): 0%
kinase still bound, per cent of control (PIM1 (human)): 26%
kinase still bound, per cent of control [6]: 0%
kinase still bound, per cent of control (RPS6KA2 KD1 (human)): 48%
kinase still bound, per cent of control (SIK3 (human)): 20%
kinase still bound, per cent of control (STK16 (human)): 34%
kinase still bound, per cent of control (STK17A (human)): 81%
kinase still bound, per cent of control (TNK2 (human)): 48%
kinase still bound, per cent of control (TTK (human)): 9.2%
kinase still bound, per cent of control (ULK2 (human)): 39%

CCC(=O)N1CCN(c2ccc(-n3c(=O)ccc4cnc5ccc(-c6cnc7ccccc7c6)cc5c43)cc2C(F)(F)F)CC1
kinase still bound, per cent of control (CAMK2B (human)): 100%
kinase still bound, per cent of control (CAMKK1 (human)): 80%
kinase still bound, per cent of control (CDC42BPB (human)): 3.4%
per cent of control (CDK5 (human)): 100%
kinase still bound, per cent of control (DDR2 (human)): 100%
kinase still bound, per cent of control [1]: 99%
kinase still bound, per cent of control (EPHA2 (human)): 59%
kinase still bound, per cent of control (EPHA7 (human)): 98%
kinase still bound, per cent of control (EPHB1 (human)): 100%
kinase still bound, per cent of control (EPHB2 (human)): 100%
kinase still bound, per cent of control [3]: 18%
kinase still bound, per cent of control (GRK4 (human)): 90%
kinase still bound, per cent of control (HIPK4 (human)): 4.6%
kinase still bound, per cent of control (IKBKB (human)): 61%
kinase still bound, per cent of control (LCK (human)): 77%
kinase still bound, per cent of control (MAP3K2 (human)): 62%
kinase still bound, per cent of control (MAP3K6 (human)): 100%
kinase still bound, per cent of control (MAP4K3 (human)): 1.9%
kinase still bound, per cent of control (MAPK1 (human)): 100%
kinase still bound, per cent of control (MAPK13 (human)): 39%
kinase still bound, per cent of control (MINK1 (human)): 19%
kinase still bound, per cent of control (MKNK2 (human)): 54%
kinase still bound, per cent of control (NEK5 (human)): 5.8%
kinase still bound, per cent of control [7]: 0%
kinase still bound, per cent of control [8]: 8.6%
kinase still bound, per cent of control [9]: 6.8%
kinase still bound, per cent of control (PIK3CB (human)): 65%
kinase still bound, per cent of control (PIM1 (human)): 80%
kinase still bound, per cent of control [6]: 51%
kinase still bound, per cent of control (RPS6KA2 KD1 (human)): 100%
kinase still bound, per cent of control (SIK3 (human)): 89%
kinase still bound, per cent of control (STK16 (human)): 18%
kinase still bound, per cent of control (STK17A (human)): 93%
kinase still bound, per cent of control (TNK2 (human)): 51%
kinase still bound, per cent of control (TTK (human)): 9.6%
kinase still bound, per cent of control (ULK2 (human)): 75%

COC(=O)Nc1ccc(-c2nc(N3CCOCC3)c3cnn(C4CCN(C(=O)OC)CC4)c3n2)cc1
kinase still bound, per cent of control (CAMK2B (human)): 100%
kinase still bound, per cent of control (CAMKK1 (human)): 100%
kinase still bound, per cent of control (CDC42BPB (human)): 96%
per cent of control (CDK5 (human)): 100%
kinase still bound, per cent of control (CSNK1A1 (human)): 100%
kinase still bound, per cent of control (DDR2 (human)): 100%
kinase still bound, per cent of control [1]: 88%
kinase still bound, per cent of control (EPHA2 (human)): 100%
kinase still bound, per cent of control (EPHA7 (human)): 94%
kinase still bound, per cent of control (EPHB1 (human)): 100%
kinase still bound, per cent of control (EPHB2 (human)): 100%
kinase still bound, per cent of control (FER (human)): 100%
kinase still bound, per cent of control [2]: 100%
kinase still bound, per cent of control [3]: 91%
kinase still bound, per cent of control (GRK4 (human)): 100%
kinase still bound, per cent of control (HIPK4 (human)): 97%
kinase still bound, per cent of control (IKBKB (human)): 74%
kinase still bound, per cent of control [4]: 75%
kinase still bound, per cent of control [5]: 100%
kinase still bound, per cent of control (LCK (human)): 88%
kinase still bound, per cent of control (MAP3K2 (human)): 89%
kinase still bound, per cent of control (MAP3K6 (human)): 95%
kinase still bound, per cent of control (MAP4K3 (human)): 74%
kinase still bound, per cent of control (MAPK1 (human)): 100%
kinase still bound, per cent of control (MAPK13 (human)): 0%
kinase still bound, per cent of control (MINK1 (human)): 100%
kinase still bound, per cent of control (MKNK2 (human)): 40%
kinase still bound, per cent of control (NEK5 (human)): 100%
kinase still bound, per cent of control [7]: 0.4%
kinase still bound, per cent of control [8]: 6.8%
kinase still bound, per cent of control [9]: 6.8%
kinase still bound, per cent of control (PIK3CB (human)): 42%
kinase still bound, per cent of control (PIM1 (human)): 100%
kinase still bound, per cent of control [6]: 87%
kinase still bound, per cent of control (RPS6KA2 KD1 (human)): 100%
kinase still bound, per cent of control (SIK3 (human)): 83%
kinase still bound, per cent of control (STK16 (human)): 77%
kinase still bound, per cent of control (STK17A (human)): 91%
kinase still bound, per cent of control (TNK2 (human)): 100%
kinase still bound, per cent of control (TTK (human)): 100%
kinase still bound, per cent of control (ULK2 (human)): 99%

Source: the kinase profiling compilation of Christmann-Franck et al. (2016)
